System: moderate-to-severe chronic spontaneous urticaria (CSU)
Experiment: Phase 2 CSU study: hives severity score over 7 days (HSS7)
Assay type: in vivo, human
Parameters: key to HSS7 Change from baseline, Median / HSS7, Median / HSS7, Max / HSS7 Change from baseline, Q1 / HSS7 Change from baseline, Q3 / HSS7 Change from baseline, Max: 7-day sum of daily hive scores, each 0 = none to 3 = >50 hives
Settings: 400 mg BID
Text: The study comprises a 12 week, randomized, double-blind, placebo-controlled, multi-center, dose-ranging efficacy and safety phase, followed by a 40 week open label extension (OLE) phase (see FIG. 1).
The study consists of three phases and an optional OLE phase.
The UAS is a validated PRO measure. The daily UAS is the sum of the daily Hive Severity Score (HSS, ranging from 0=None to 3=more than 50 hives) and the daily Itch Severity Score (ISS, ranging from 0=None to 3=intense), the 2 key urticaria signs and symptoms which are wheals and itch. The daily UAS scores range from 0 to 6 point/day. Daily UAS scores are summed over 7-day period to create the UAS7, ranging from 0 to 42, and are composed of the HSS7 and ISS7 components. […] Patients were to complete the UAS using the e-diary. The e-diary was to be used once daily on the same time of each day recording of participant's answers to the urticaria activity score over 7 days (UAS7) questionnaire. For participants who entered the OLE phase, their answers to the UAS7 questionnaire were also to be collected from Week 20 to Week24 and from Week 48 to Week 52.
The following secondary endpoints were to be analyzed using the same approach as for the primary endpoint: • Change from baseline in UAS7 at Week 4 • Change from baseline in UAS7 at Week 12 (for US and US reference countries) • Change from baseline in ISS7 at Week 12 (except US and US reference countries) • Change from baseline in HSS7 at Week 12

[1] = Omalizumab-Naïve Population, last block under Week 12, double-blind period, WOCF imputation
[2] = Week 1, Omalizumab-Naïve Population
[3] = Week 2, Omalizumab-Naïve Population
[4] = Week 3, Omalizumab-Naïve Population
[5] = Week 4, Omalizumab-Naïve Population
[6] = Week 5, Omalizumab-Naïve Population
[7] = Week 6, Omalizumab-Naïve Population
[8] = Week 7, Omalizumab-Naïve Population
[9] = Week 8, Omalizumab-Naïve Population

SMILES: CC(C)(C=C(C#N)C(=O)N1CCC[C@@H](n2nc(-c3ccc(Oc4ccccc4)cc3F)c3c(N)ncnc32)C1)N1CCN(C2COC2)CC1 [rilzabrutinib, (R)-2-[3-[4-amino-3-(2-fluoro-4-phenoxy-phenyl)pyrazolo[3,4-d]pyrimidin-1-yl]piperidine-1-carbonyl]-4-methyl-4-[4-(oxetan-3-yl)piperazin-1-yl]pent-2-enenitrile]
- HSS7, Max [1]: 21.0
- HSS7, Min [1]: 0.0
- HSS7 Change from baseline, Max [1]: 0.0
- HSS7 Change from baseline, Mean (SD) [1]: −7.80 (6.87)
- HSS7 Change from baseline, Median [1]: −5.00
- HSS7 Change from baseline, Min [1]: −16.0
- HSS7 Change from baseline, Q1 [1]: −14.00
- HSS7 Change from baseline, Q3 [1]: −4.00
- HSS7 Percent change from baseline, Max [1]: 0.0%
- HSS7 Percent change from baseline, Mean (SD) [1]: −53.67 (44.85) percent
- HSS7 Percent change from baseline, Median [1]: −41.67%
- HSS7 Percent change from baseline, Min [1]: −100.0%
- HSS7 Percent change from baseline, Q1 [1]: −100.00%
- HSS7 Percent change from baseline, Q3 [1]: −26.67%
- HSS7 % Change difference for rilzabrutinib vs.placebo LS Mean (95% CI) (Week 1, ITT Population): −25.04 %
- HSS7 % Change from baseline LS Mean (SE) (Week 1, ITT Population): −33.74 (5.55) %
- HSS7 Change difference for rilzabrutinib vs.placebo LS Mean (95% CI) (Week 1, ITT Population): −2.95 (−5.36, −0.55)
- HSS7 Change from baseline LS Mean (SE) (Week 1, ITT Population): −4.79 (0.75)
- HSS7 Postbaseline Mean (SD) (Week 1, ITT Population): 9.32 (5.77)
- HSS7 % Change difference for rilzabrutinib vs.placebo LS Mean (95% CI) [2]: −27.07 %
- HSS7 % Change from baseline LS Mean (SE) [2]: −34.51 (5.97) %
- HSS7 Change difference for rilzabrutinib vs.placebo LS Mean (95% CI) [2]: −3.10 (−5.66, −0.53)
- HSS7 Change from baseline LS Mean (SE) [2]: −4.73 (0.80)
- HSS7 Postbaseline Mean (SD) [2]: 9.26 (5.76)
- HSS7 Postbaseline Mean (SD) (Week 1, Omalizumab-Naïve Population with Outlier Removed from Analysis): 9.26 (5.76)
- HSS7 % Change difference for rilzabrutinib vs.placebo LS Mean (95% CI) (Week 2, ITT Population): −18.39 %
- HSS7 % Change from baseline LS Mean (SE) (Week 2, ITT Population): −34.94 (5.70) %
- HSS7 Change difference for rilzabrutinib vs.placebo LS Mean (95% CI) (Week 2, ITT Population): −2.23 (−4.31, −0.14)
- HSS7 Change from baseline LS Mean (SE) (Week 2, ITT Population): −5.15 (0.79)
- HSS7 Postbaseline Mean (SD) (Week 2, ITT Population): 9.11 (5.66)
- HSS7 % Change difference for rilzabrutinib vs.placebo LS Mean (95% CI) [3]: −19.53 %
- HSS7 % Change from baseline LS Mean (SE) [3]: −34.80 (6.07) %
- HSS7 Postbaseline Mean (SD) [3]: 9.27 (5.49)
- HSS7 Postbaseline Mean (SD) (Week 2, Omalizumab-Naïve Population with Outlier Removed from Analysis): 9.27 (5.49)
- HSS7 % Change difference for rilzabrutinib vs.placebo LS Mean (95% CI) (Week 3, ITT Population): −19.09 %
- HSS7 % Change from baseline LS Mean (SE) (Week 3, ITT Population): −38.24 (5.88) %
- HSS7 Change difference for rilzabrutinib vs.placebo LS Mean (95% CI) (Week 3, ITT Population): −2.14 (−4.31, 0.04)
- HSS7 Change from baseline LS Mean (SE) (Week 3, ITT Population): −5.64 (0.82)
- HSS7 Postbaseline Mean (SD) (Week 3, ITT Population): 8.42 (6.15)
- HSS7 % Change difference for rilzabrutinib vs.placebo LS Mean (95% CI) [4]: −20.68 %
- HSS7 % Change from baseline LS Mean (SE) [4]: −38.38 (6.33) %
- HSS7 Postbaseline Mean (SD) [4]: 8.55 (6.09)
- HSS7 Postbaseline Mean (SD) (Week 3, Omalizumab-Naïve Population with Outlier Removed from Analysis): 8.55 (6.09)
- HSS7 % Change difference for rilzabrutinib vs.placebo LS Mean (95% CI) (Week 4, ITT population): −24.40 %
- HSS7 % Change from baseline LS Mean (SE) (Week 4, ITT population): −43.10 (6.02) %
- HSS7 Change difference for rilzabrutinib vs.placebo LS Mean (95% CI) (Week 4, ITT population): −2.71 (−4.92, −0.50)
- HSS7 Change from baseline LS Mean (SE) (Week 4, ITT population): −6.16 (0.83)
- HSS7 Postbaseline Mean (SD) (Week 4, ITT population): 7.50 (6.18)
- HSS7 % Change difference for rilzabrutinib vs.placebo LS Mean (95% CI) [5]: −27.23 %
- HSS7 % Change from baseline LS Mean (SE) [5]: −43.11 (6.45) %
- HSS7 Postbaseline Mean (SD) [5]: 7.60 (6.00)
- HSS7 Postbaseline Mean (SD) (Week 4, Omalizumab-Naïve Population with Outlier Removed from Analysis): 7.60 (6.00)
- HSS7 % Change difference for rilzabrutinib vs.placebo LS Mean (95% CI) (Week 5, ITT Population): −12.25 %
- HSS7 % Change from baseline LS Mean (SE) (Week 5, ITT Population): −41.40 (5.88) %
- HSS7 Change difference for rilzabrutinib vs.placebo LS Mean (95% CI) (Week 5, ITT Population): −1.29 (−3.57, 0.99)
- HSS7 Change from baseline LS Mean (SE) (Week 5, ITT Population): −5.93 (0.86)
- HSS7 Postbaseline Mean (SD) (Week 5, ITT Population): 7.91 (6.94)
- HSS7 % Change difference for rilzabrutinib vs.placebo LS Mean (95% CI) [6]: −9.42 (−26.13, 7.29) %
- HSS7 % Change from baseline LS Mean (SE) [6]: −39.98 (6.23) %
- HSS7 Postbaseline Mean (SD) [6]: 8.34 (6.75)
- HSS7 Postbaseline Mean (SD) (Week 5, Omalizumab-Naïve Population with Outlier Removed from Analysis): 8.34 (6.75)
- HSS7 % Change difference for rilzabrutinib vs.placebo LS Mean (95% CI) (Week 6, ITT Population): −15.72 %
- HSS7 % Change from baseline LS Mean (SE) (Week 6, ITT Population): −39.79 (6.64) %
- HSS7 Change difference for rilzabrutinib vs.placebo LS Mean (95% CI) (Week 6, ITT Population): −1.64 (−4.07, 0.79)
- HSS7 Change from baseline LS Mean (SE) (Week 6, ITT Population): −5.90 (0.92)
- HSS7 Postbaseline Mean (SD) (Week 6, ITT Population): 7.89 (6.65)
- HSS7 % Change difference for rilzabrutinib vs.placebo LS Mean (95% CI) [7]: −15.99 %
- HSS7 % Change from baseline LS Mean (SE) [7]: −40.02 (7.13) %
- HSS7 Postbaseline Mean (SD) [7]: 8.17 (6.62)
- HSS7 Postbaseline Mean (SD) (Week 6, Omalizumab-Naïve Population with Outlier Removed from Analysis): 8.17 (6.62)
- HSS7 % Change difference for rilzabrutinib vs.placebo LS Mean (95% CI) (Week 7, ITT Population): −22.31 %
- HSS7 % Change from baseline LS Mean (SE) (Week 7, ITT Population): −46.27 (6.01) %
- HSS7 Change difference for rilzabrutinib vs.placebo LS Mean (95% CI) (Week 7, ITT Population): −2.71 (−4.98, −0.44)
- HSS7 Change from baseline LS Mean (SE) (Week 7, ITT Population): −6.79 (0.86)
- HSS7 Postbaseline Mean (SD) (Week 7, ITT Population): 7.01 (6.25)
- HSS7 % Change difference for rilzabrutinib vs.placebo LS Mean (95% CI) [8]: −19.88 %
- HSS7 % Change from baseline LS Mean (SE) [8]: −45.57 (6.48) %
- HSS7 Postbaseline Mean (SD) [8]: 7.34 (6.12)
- HSS7 Postbaseline Mean (SD) (Week 7, Omalizumab-Naïve Population with Outlier Removed from Analysis): 7.34 (6.12)
- HSS7 % Change difference for rilzabrutinib vs.placebo LS Mean (95% CI) (Week 8, ITT population): −23.44 %
- HSS7 % Change from baseline LS Mean (SE) (Week 8, ITT population): −52.52 (6.33) %
- HSS7 Change difference for rilzabrutinib vs.placebo LS Mean (95% CI) (Week 8, ITT population): −2.74 (−5.15, −0.33)
- HSS7 Change from baseline LS Mean (SE) (Week 8, ITT population): −7.49 (0.91)
- HSS7 Postbaseline Mean (SD) (Week 8, ITT population): 6.41 (6.73)
- HSS7 % Change difference for rilzabrutinib vs.placebo LS Mean (95% CI) [9]: −25.21 %
- HSS7 % Change from baseline LS Mean (SE) [9]: −53.21 (6.86) %
- HSS7 Postbaseline Mean (SD) [9]: 6.66 (6.70)
- HSS7 Postbaseline Mean (SD) (Week 8, Omalizumab-Naïve Population with Outlier Removed from Analysis): 6.66 (6.70)
- HSS7 % Change difference for rilzabrutinib vs.placebo LS Mean (95% CI) (Week 9, ITT Population): −27.61 %
- HSS7 % Change from baseline LS Mean (SE) (Week 9, ITT Population): −51.53 (6.66) %
- HSS7 Change difference for rilzabrutinib vs.placebo LS Mean (95% CI) (Week 9, ITT Population): −3.04 (−5.57, −0.51)
- HSS7 Change from baseline LS Mean (SE) (Week 9, ITT Population): −7.16 (0.96)
- HSS7 Postbaseline Mean (SD) (Week 9, ITT Population): 6.69 (7.49)
- HSS7 Postbaseline Mean (SD) (Week 9, Omalizumab-Naïve Population): 7.01 (7.58)
- HSS7 Postbaseline Mean (SD) (Week 9, Omalizumab-Naïve Population with Outlier Removed from Analysis): 7.01 (7.58)
- HSS7 % Change difference for rilzabrutinib vs.placebo LS Mean (95% CI) (Week 10, ITT Population): −24.54 %
- HSS7 % Change from baseline LS Mean (SE) (Week 10, ITT Population): −52.53 (6.82) %
- HSS7 Change difference for rilzabrutinib vs.placebo LS Mean (95% CI) (Week 10, ITT Population): −2.72 (−5.32, −0.11)
- HSS7 Change from baseline LS Mean (SE) (Week 10, ITT Population): −7.32 (0.99)
- HSS7 Postbaseline Mean (SD) (Week 10, ITT Population): 6.77 (7.18)
- HSS7 Postbaseline Mean (SD) (Week 10, Omalizumab-Naïve Population): 7.05 (7.27)
- HSS7 Postbaseline Mean (SD) (Week 10, Omalizumab-Naïve Population with Outlier Removed from Analysis): 7.05 (7.27)
- HSS7 % Change difference for rilzabrutinib vs.placebo LS Mean (95% CI) (Week 11, ITT Population): −22.60 %

Source: patent publication US20260256792A1, “TREATMENT OF CHRONIC SPONTANEOUS URTICARIA BY ADMINISTERING (R)-2-[3-[4-AMINO-3-(2-FLUORO-4-PHENOXY-PHENYL)PYRAZOLO[3,4-D]PYRIMIDIN-1-YL]PIPERIDINE-1-CARBONYL]-4-METHYL-4-[4-(OXETAN-3-YL)PIPERAZIN-1-YL]PENT-2-ENENITRILE” (priority 2023, published 2026)
